Reference: patent US20110182830A1, “INHALATION DRUG PRODUCTS, SYSTEMS AND USES” (Schering Corporation, priority 2008, published 2011)

Key:
[1] = Andersen Cascade Impactor (ACI) with USP throat, aerodynamic particle size distribution, pMDI alone vs pMDI with chamber, continuous flow 28.3 L/min; assay type: physicochemical; conditions: for reduction in FPD (μg) as compared to the pMDI alone: pMDI with OPTICHAMBER
Experimental: Pressurized MDI products were tested alone and as an inhalation system/drug product which included a pMDI in combination with one chamber such as the A[…]-STAT Plus™ (volume=148 mL), A[…]® (volume=[…]), VORTEX® AND OPTICHAMBER®.
An Andersen Cascade Impactor (ACI) with USP throat was used to measure aerodynamic particle size distribution. Two impactor configurations were used for the two flow rates. Plates 0 through 7 were used for sampling at 28.3 L/min; plates—1 through 6 were used for sampling at 60 L/min. The effective cut off diameters for the plates in each configuration were provided by the manufacturer. Total delivered dose values report the total mass of active ingredient recovered from the impactor (throat, plates and filter). Fine particle dose values report the total mass of active ingredient with aerodynamic diameter less than 4.7 μm.
FIGS. 1 and 2 show throat, fine particle dose and total delivered dose recoveries for both active ingredients, as measured by ACI under continuous flow at 28.3 L/min. Recoveries are shown for different spacer devices and the pMDI, as indicated in the legends. Data points represent mean values (n=5); error bars indicate one standard deviation.

[2] = cited from earlier work
[3] = cited from earlier work; remark: listed apart in the source
[4] = pMDI with AEROCHAMBER Z-STAT PLUS

reduction of deposition in the throat portion of the ACI ([1]; use of several of the chambers vs pMDI alone)	SMILES	difference in fine particle dose (FPD, <4.7 μm) vs pMDI alone ([1]; pMDI with AEROCHAMBER MAX) [%]	difference in fine particle dose (FPD, <4.7 μm) vs pMDI alone [1, 4]	reduction in FPD (μg) as compared to the pMDI alone [1]	difference in fine particle dose (FPD, <4.7 μm) vs pMDI alone ([1]; pMDI with VORTEX) [%]	solubility in acetone [2]	solubility in diethyl ether ([2]; diethyl ether)	solubility in ethanol [2]	solubility in ethyl acetate ([2]; ethyl acetate)	solubility in glacial acetic acid ([2]; glacial acetic acid)	solubility in isopropanol [2]	solubility in methanol [2]	solubility in water [2]	partition coefficient between octanol and water [3]	solubility in chloroform ([2]; chloroform)	solubility in tetrahydrofuran ([2]; tetrahydrofuran)
–	COc1ccc(CC(C)NCC(O)c2ccc(O)c(NC=O)c2)cc1.O.O.O=C(O)/C=C/C(=O)O (racemic) [formoterol fumarate, (±)2-hydroxy-5-[(1RS)-1-hydroxy-2-[[(1RS)-2-(4-methoxyphenyl)-1methylethyl]-amino]ethyl] formanilide fumarate dihydrate]	≤ 15	less than 5%	about 30%	≤ 20	practically insoluble	practically insoluble	sparingly soluble	practically insoluble	freely soluble	sparingly soluble	soluble	slightly soluble	–	–	–
about 90%	C[C@@H]1C[C@H]2[C@@H]3CCC4=CC(=O)C=C[C@]4(C)[C@@]3(Cl)[C@@H](O)C[C@]2(C)[C@@]1(OC(=O)c1ccco1)C(=O)CCl [mometasone furoate, 9,21-Dichloro-11(beta), 17-dihydroxy-16(alpha)-methylpregna-1,4-diene-3,20-dione 17-(2 furoate)]	≤ 15	less than 5%	about 30%	≤ 20	soluble	–	slightly soluble	–	–	slightly soluble	slightly soluble	practically insoluble	greater than 5000	soluble	freely soluble
